From patent US20240261424A1, “ANTIBODY DRUG CONJUGATE” (NATIONAL CANCER CENTER, priority 2020, published 2024)
Where two headings read alike, the source gives them in different places. Where a SMILES comes first, the peptide text is derived from it. [ ]: non-standard residue; d: D form. The star is where a group is joined. Dolaproine = CO[C@@H]([C@@H]1CCCN1)[C@@H](C)C(=O)O; Dil = CC[C@H](C)[C@H](NC)[C@@H](CC(=O)O)OC; X1 = C[C@@H](N*)[C@@H](O)c1ccccc1; NMeV = CN[C@H](C(=O)O)C(C)C

How the values were obtained:
[1] = test system: human pancreatic adenocarcinoma cell line (BxPC-3); assay: Cell-killing effect on BxPC-3; assay type: cell-based; settings: read-out: IC50 values for BxPC-3
Procedure: (§1) The ADCs prepared above were evaluated in vitro for their cell-killing effects on human pancreatic adenocarcinoma cells by the following method.
(§2) RPMI-1640 supplemented with 10% fetal bovine serum and penicillin-streptomycin-[…] (×100) suspension was used as the culture medium. Human pancreatic adenocarcinoma BxPC-3, PSN-1, and HPAF-II were adjusted to 5000 cells/mL, 2000 cells/mL, and 5000 cells/mL, respectively, and seeded on 96-well plates at 100 μL/well and allowed to stand overnight in a CO2 incubator (37° C.).
(§3) The ADCs, Dxd single agent, and MMAE single agent were each adjusted with a culture solution so that the final concentration (in terms of MMAE and Dxd) was 0.1, 0.3, 1, 3, 10, 30, 100 nM, or the like, and were added at 100 μL/well to a 96-well plate inoculated with each human pancreatic adenocarcinoma, and then allowed to stand in a CO2 incubator (37° C.) for 6 days. Then, the culture medium containing the drug was removed with an aspirator, and the number of viable cells was measured by Cell Counting Kit-8 (manufactured by Dojindo Laboratories) according to the attached protocol. The reaction time of the reagent was three hours, and the absorbance was measured by SpectraMax Paradigm (manufactured by Molecular Devices). FIGS. 1A to 1E show the results of the cell-killing effects.

[2] = test system: human pancreatic adenocarcinoma cell line (PSN-1); assay: Cell-killing effect on PSN-1; assay type: cell-based; settings: read-out: IC50 values for PSN-1
Procedure: as §1, §2, §3

CC[C@@]1(O)C(=O)OCc2c1cc1n(c2=O)Cc2c-1nc1cc(F)c(C)c3c1c2[C@@H](NC(=O)CO)CC3 [Dxd]
IC50 ([1]; Homo sapiens, BXPC-3, 144 h): 2.58 ± 0.26 nM | IC50 ([2]; Homo sapiens, PSN1, 144 h): 7.92 ± 0.84 nM

CC[C@H](C)[C@@H]([C@@H](CC(=O)N1CCC[C@H]1[C@H](OC)[C@@H](C)C(=O)N[C@H](C)[C@@H](O)c1ccccc1)OC)N(C)C(=O)[C@@H](NC(=O)[C@@H](NC)C(C)C)C(C)C [MMAE, monomethyl auristatin E] (H-[NMeV]V[Dil][Dolaproine]-X1)
IC50 ([1]; FIG. 1A, concentration in terms of MMAE and Dxd, 6 days, Cell Counting Kit-8): 0.62 ± 0.04 nM | IC50 ([2]; FIG. 1B, concentration in terms of MMAE and Dxd, 6 days, Cell Counting Kit-8): 0.73 ± 0.04 nM
